Experiments:
Type in all cases: biochemical
[1] = biological target: T1, Prolidase from porcine kidney (Sus scrofa, UniProt A0A5G2QQV1); assay: Cross reacting enzymes: prolidase; conditions: Ile-Pro-OH 0.5 mM, pH 7.6; read-out: IC50 against prolidase
T1 construct: Prolidase from porcine kidney; purchased ICN Biomedicals, Eschwege, Germany; host or cells: porcine kidney
T1 sequence (A0A5G2QQV1 1-463): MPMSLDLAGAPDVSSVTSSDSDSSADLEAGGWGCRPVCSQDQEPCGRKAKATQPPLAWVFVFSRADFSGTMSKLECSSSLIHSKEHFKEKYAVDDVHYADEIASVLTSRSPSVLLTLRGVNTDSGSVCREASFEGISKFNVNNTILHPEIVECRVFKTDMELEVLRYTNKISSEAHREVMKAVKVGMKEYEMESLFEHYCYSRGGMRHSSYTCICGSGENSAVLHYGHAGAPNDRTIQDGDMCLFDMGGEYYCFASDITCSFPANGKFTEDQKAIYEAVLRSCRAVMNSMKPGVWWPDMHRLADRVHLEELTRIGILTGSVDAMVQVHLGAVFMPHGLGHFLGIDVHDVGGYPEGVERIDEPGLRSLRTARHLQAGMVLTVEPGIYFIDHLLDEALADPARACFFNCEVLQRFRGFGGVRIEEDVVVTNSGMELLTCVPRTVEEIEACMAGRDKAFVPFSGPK
Protocol: Prolidase from porcine kidney (ICN Biomedicals, Eschwege, Germany) was solved (1 mg/ml) in assay buffer (20 mM NH4(CH3COO)2, 3 mM MnCl2, pH 7.6). In order to get a fully active enzyme the solution was incubated for 60 min at room temperature.
450 μl glutaminyl pyrrolidine or glutaminyl thiazolidine in an concentration range of 5*10^−3 M-5*10^−7 M were admixed with 500 μl buffer solution (20 mM […], pH 7.6) and 250 μl Ile-Pro-OH (0.5 mM in the assay mixture). The assay mixture was pre-incubated at 30° C. for 5 min. After pre-incubation, 75 μl Prolidase (1:10 diluted in assay buffer) were added and measurement was performed at 30° C. and λ=220 nm for 20 min using a UV/Vis photometer, UV1 (Thermo Spectronic, Cambridge, UK).
The IC 50-values were calculated using Graphit 4.0.15 (Erithacus Software, Ltd., UK).

[2] = biological target: T2, dipeptidyl peptidase IV from porcine kidney (Sus scrofa, UniProt P22411); assay: Ki determination, DPIV inhibition (glycylprolyl-4-nitroaniline); conditions: HEPES pH7.6, 30° C.
T2 construct: dipeptidyl peptidase IV from porcine kidney; from tissue; host or cells: porcine kidney

purified porcine DPIV = purified porcine DPIV (Sus scrofa, UniProt P22411); assay: Determination of IC50 values, DPIV (Gly-Pro-pNA); conditions: Gly-Pro-pNA 0.4 mM, HEPES pH7.6, 30° C.
Protocol: 100 μl inhibitor stock solution were mixed with 100 μl buffer (HEPES pH7.6) and 50 μl substrate (Gly-Pro-pNA, final concentration 0.4 mM) and preincubated at 30° C. Reaction was started by addition of 20 μl purified porcine DPIV. Formation of the product pNA was measured at 405 nm over 10 min using the HTS 7000Plus plate reader (Perkin Elmer) and slopes were calculated. The final inhibitor concentrations ranged between 1 mM and 30 nM. For calculation of IC50 GraFit 4.0.13 (Erithacus Software) was used.

[3] = biological target: T3, porcine dipeptidyl peptidase II (DP II) (Sus scrofa, UniProt A0A5G2QK18); assay: Inhibition of DPIV-like enzymes, dipeptidyl peptidase II; conditions: lysylalanylaminomethylcoumarine, 30° C.; read-out: Ki against porcine dipeptidyl peptidase II
T3 construct: The enzyme used was purified from porcine kidney; from tissue; host or cells: porcine kidney
Protocol: DP II (3.4.14.2) releases N-terminal dipeptides from oligopeptides if the N-terminus is not protonated (McDonald, J. K., Ellis, S. & Reilly, T. J., 1966, J. Biol. Chem., 241, 1494-1501). Pro and Ala in Pi-position are preferred residues. The enzyme activity is described as DPIV-like activity, but DP II has an acidic pH-optimum. The enzyme used was purified from porcine kidney.
100 μl glutaminyl pyrrolidine or glutaminyl thiazolidine in an concentration range of 1*10^−4 M-5*10^−8 M were admixed with 100 μl μl buffer solution (40 mM HEPES, pH7.6, 0.015% Brij, 1 mM DTT), 50 μl lysylalanylaminomethylcoumarine solution (5 mM) and 20 μl porcine DP II (250fold diluted in buffer solution). Fluorescence measurement was performed at 30° C. and λexiatation=380 nm, λemission=465 nm for 25 min using a plate reader (HTS7000plus, Applied Biosystems, Weiterstadt, Germany).

T2 sequence (P22411 whole entry): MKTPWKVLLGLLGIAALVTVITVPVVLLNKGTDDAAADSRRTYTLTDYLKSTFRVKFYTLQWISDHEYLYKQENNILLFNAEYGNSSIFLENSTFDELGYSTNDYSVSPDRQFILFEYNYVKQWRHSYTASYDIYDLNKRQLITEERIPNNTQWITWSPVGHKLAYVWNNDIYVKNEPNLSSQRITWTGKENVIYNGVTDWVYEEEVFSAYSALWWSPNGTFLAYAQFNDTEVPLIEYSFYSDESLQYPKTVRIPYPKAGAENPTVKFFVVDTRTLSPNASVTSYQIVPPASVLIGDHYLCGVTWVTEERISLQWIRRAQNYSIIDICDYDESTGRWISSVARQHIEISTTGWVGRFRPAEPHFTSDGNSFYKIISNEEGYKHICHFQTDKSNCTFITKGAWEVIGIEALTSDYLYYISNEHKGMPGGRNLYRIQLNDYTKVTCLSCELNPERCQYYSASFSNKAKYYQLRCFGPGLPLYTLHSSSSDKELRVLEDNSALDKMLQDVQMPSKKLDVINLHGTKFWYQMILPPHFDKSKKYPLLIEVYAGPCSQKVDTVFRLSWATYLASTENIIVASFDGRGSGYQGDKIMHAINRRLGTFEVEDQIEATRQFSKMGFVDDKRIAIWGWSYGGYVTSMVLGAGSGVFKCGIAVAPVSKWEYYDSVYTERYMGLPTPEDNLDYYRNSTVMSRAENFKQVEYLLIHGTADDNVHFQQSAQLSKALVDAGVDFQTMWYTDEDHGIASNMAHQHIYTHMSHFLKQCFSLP
purified porcine DPIV, sequence (P22411 whole entry): as above
T3 sequence (A0A5G2QK18 28-502): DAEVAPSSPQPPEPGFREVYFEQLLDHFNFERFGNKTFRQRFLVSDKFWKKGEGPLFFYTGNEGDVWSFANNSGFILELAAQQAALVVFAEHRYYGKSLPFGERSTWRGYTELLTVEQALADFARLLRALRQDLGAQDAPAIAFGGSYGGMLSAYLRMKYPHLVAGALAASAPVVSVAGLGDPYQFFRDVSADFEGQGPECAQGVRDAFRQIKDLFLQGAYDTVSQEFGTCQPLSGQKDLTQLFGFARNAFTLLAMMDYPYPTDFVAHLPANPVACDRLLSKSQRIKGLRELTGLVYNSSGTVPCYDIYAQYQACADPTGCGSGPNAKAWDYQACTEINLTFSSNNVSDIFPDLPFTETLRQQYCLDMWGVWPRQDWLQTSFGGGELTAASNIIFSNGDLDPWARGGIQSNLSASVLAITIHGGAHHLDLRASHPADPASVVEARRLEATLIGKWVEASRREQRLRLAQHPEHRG

Q: Which results are given for NC(=O)CCC(N)C(=O)N1CCCC1 (stereo not shown) [Gln-Pyrr, glutaminyl pyrrolidine]?
A: IC50 [1]: 340 µM; Ki [2]: 2.26 µM; IC50 (purified porcine DPIV): 15 µM; Ki [3]: 85.2 µM

Reference: patent US7368576B2, “Dipeptidyl peptidase IV inhibitors and their uses as anti-cancer agents” (Probiodrug AG, priority 2001, dated 2008)
